# Measurements: article PMC5712788, “DM9 Domain Containing Protein Functions As a Pattern Recognition Receptor with Broad Microbial Recognition Spectrum” (Frontiers in Immunology, 2017)
# Target: T1, CgDM9CP-1 (rCgDM9CP-1) (Magallana gigas, UniProt K1QRB6)
# T1 construct: gene CGI_10011001; recombinant, E. coli Transetta (DE3); two DM9 domains; mutants in pET-28a with N-terminal 6xHis; 5MH2 is D22A, 5MH3 is K43A
# T1 sequence (K1QRB6 1-143): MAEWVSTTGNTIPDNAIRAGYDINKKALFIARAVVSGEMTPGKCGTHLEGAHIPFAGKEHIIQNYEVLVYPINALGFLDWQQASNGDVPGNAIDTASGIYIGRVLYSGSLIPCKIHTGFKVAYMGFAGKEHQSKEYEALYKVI
# Assay: ITC
# Assay type: binding
# Conditions: 25°C, PBS (pH 7.2 in table, 7.4 in methods), N = 1
# Excerpt: ITC on CgDM9CP-1 (rCgDM9CP-1)
structure (smiles),measurement,value
OC[C@H]1OC(O)[C@@H](O)[C@@H](O)[C@@H]1O (stereo partly drawn) [D-mannose],Kd,123 ± 19.7 µM
same,Value,8.16 ± 0.19 10^3 M^−1
